Source: patent US20250002458A1, “SALT FORMS OF […]” (UNICYCIVE THERAPEUTICS INC., priority 2023, published 2025)
Structures can show the parent of a compound that is named as a salt.

Legend:
[1] = Photostability of iodide and nitrate salts (control, UV, visible); format: physicochemical; settings: for Total impurities: photostability
Procedure: The photostability of Compound 1 iodide salt and Compound 1 nitrate salt were tested.
The photostability of Compound 2 iodide salt and Compound 2 nitrate salt were tested.

[2] = Stability of select salts of Compound 1 at 5, 25 and 40° C. over 6 months, purity by HPLC; format: physicochemical
Procedure: A description of the salt and the purity as determined by HPLC are provided initially and at the 1st, 2nd, 3rd, and 6th month for each salt.
Preparation of test solution: About 50.0 mg of test sample was weighed into a 25 mL of volumetric flask and diluent (10 mL) was added. The mixture was sonicated to dissolve sample and diluted up to mark with diluent and mixed well.

Question: What does the source list for `C[C@H](NC(=O)OC[n+]1cccc(C(=O)NCCO[N+](=O)[O-])c1)C1CCCCC1` [Compound 1 iodide salt]?
Answer: Total impurities ([1]; UV): 0.27; Total impurities ([1]; Visible): 0.60; Total impurities ([1]; control sample): 0.07

Question: Which Purity ([2]; 5° C., 1st Month) does the source give for `C[C@H](NC(=O)OC[n+]1cccc(C(=O)NCCO[N+](=O)[O-])c1)C1CCCCC1` [Compound 1 Phosphate Salt] here?
Answer: 95.8

Question: And the Purity ([2]; 5° C., 2nd Month)?
Answer: 93.8

Question: And the Purity ([2]; 5° C., 3rd Month)?
Answer: 94.6

Question: And the Purity ([2]; 5° C., 6th Month)?
Answer: 94.5

Question: And the Purity ([2]; 5° C., Initial)?
Answer: 96.5

Question: And the Purity ([2]; 25° C., 1st Month)?
Answer: 93.3

Question: What about the Purity ([2]; 25° C., 2nd Month) of the same molecule?
Answer: 83.7

Question: And the Purity ([2]; 25° C., 3rd Month)?
Answer: 78.2

Question: And the Purity ([2]; 25° C., 6th Month)?
Answer: 69.4

Question: What about the Purity ([2]; 25° C., Initial) of the same molecule?
Answer: 96.5

Question: What about the Purity ([2]; 40° C., 1st Month) of the same molecule?
Answer: 91.4

Question: And the Purity ([2]; 40° C., 2nd Month)?
Answer: 63.1

Question: And the Purity ([2]; 40° C., 3rd Month)?
Answer: 50.9

Question: And the Purity ([2]; 40° C., 6th Month)?
Answer: 50.5

Question: And the Purity ([2]; 40° C., Initial)?
Answer: 96.5

Question: Which results are given for `C[C@H](NC(=O)OC[n+]1cccc(C(=O)NCCO[N+](=O)[O-])c1)C1CCCCC1` [Compound 1 Perchlorate Salt]?
Answer: Purity ([2]; 5° C., 1st Month): 96.3; Purity ([2]; 5° C., 2nd Month): 93.0; Purity ([2]; 5° C., 3rd Month): 95.7; Purity ([2]; 5° C., 6th Month): 94.8; Purity ([2]; 5° C., Initial): 97.6; Purity ([2]; 25° C., 1st Month): 95.4; Purity ([2]; 25° C., 2nd Month): 89.4; Purity ([2]; 25° C., 3rd Month): 84.9; Purity ([2]; 25° C., 6th Month): 74.8; Purity ([2]; 25° C., Initial): 97.6

Question: For `C[C@H](NC(=O)OC[n+]1cccc(C(=O)NCCO[N+](=O)[O-])c1)C1CCCCC1` [Compound 1 nitrate salt], which “Total impurities compared with the iodide salt” value ([1]; exposed to both UV and visible light) is on record?
Answer: less than the impurities in Compound 1 iodide salt

Question: What about the Total impurities ([1]; UV) of the same molecule?
Answer: 0.21

Question: And the Total impurities ([1]; Visible)?
Answer: 0.16

Question: What about the Total impurities ([1]; control sample) of the same molecule?
Answer: 0.06

Question: With `C[C@H](NC(=O)OC[n+]1cccc(C(=O)NCCO[N+](=O)[O-])c1)C1CCCCC1` [Compound 1 Besylate Salt] as the molecule, how does the Purity ([2]; 5° C., 1st Month) read?
Answer: 88.8

Question: And the Purity ([2]; 5° C., 2nd Month)?
Answer: 88.6

Question: What about the Purity ([2]; 5° C., 3rd Month) of the same molecule?
Answer: 87.5

Question: And the Purity ([2]; 5° C., 6th Month)?
Answer: 86.9

Question: And the Purity ([2]; 5° C., Initial)?
Answer: 96.6

Question: What about the Purity ([2]; 25° C., 1st Month) of the same molecule?
Answer: 87.1

Question: What about the Purity ([2]; 25° C., 2nd Month) of the same molecule?
Answer: 79.3

Question: And the Purity ([2]; 25° C., 3rd Month)?
Answer: 66.7

Question: What about the Purity ([2]; 25° C., 6th Month) of the same molecule?
Answer: 51.2

Question: And the Purity ([2]; 25° C., Initial)?
Answer: 96.6

Question: With `C[C@H](NC(=O)OC[n+]1cccc(C(=O)NCCO[N+](=O)[O-])c1)C1CCCCC1` [Compound 1 Trifluoroacetate Salt] as the molecule, how does the Purity ([2]; 5° C., 1st Month) read?
Answer: 97.2

Question: And the Purity ([2]; 5° C., 2nd Month)?
Answer: 96.6

Question: And the Purity ([2]; 5° C., 3rd Month)?
Answer: 97.0

Question: And the Purity ([2]; 5° C., 6th Month)?
Answer: 97.2

Question: And the Purity ([2]; 5° C., Initial)?
Answer: 98.6

Question: What about the Purity ([2]; 25° C., 1st Month) of the same molecule?
Answer: 96.5

Question: And the Purity ([2]; 25° C., 2nd Month)?
Answer: 94.6

Question: What about the Purity ([2]; 25° C., 3rd Month) of the same molecule?
Answer: 92.2

Question: What about the Purity ([2]; 25° C., 6th Month) of the same molecule?
Answer: 85.9

Question: What about the Purity ([2]; 25° C., Initial) of the same molecule?
Answer: 98.6

Question: With `C[C@H](NC(=O)OC[n+]1cccc(C(=O)NCCO[N+](=O)[O-])c1)C1CCCCC1` [Compound 1 4-Nitrobesylate Salt] as the molecule, how does the Purity ([2]; 5° C., 1st Month) read?
Answer: 98.1

Question: What about the Purity ([2]; 5° C., 2nd Month) of the same molecule?
Answer: 98.1

Question: And the Purity ([2]; 5° C., 3rd Month)?
Answer: 97.8

Question: What about the Purity ([2]; 5° C., 6th Month) of the same molecule?
Answer: 97.9

Question: And the Purity ([2]; 5° C., Initial)?
Answer: 98.1

Question: And the Purity ([2]; 25° C., 1st Month)?
Answer: 97.2

Question: And the Purity ([2]; 25° C., 2nd Month)?
Answer: 93.1

Question: And the Purity ([2]; 25° C., 3rd Month)?
Answer: 86.8

Question: And the Purity ([2]; 25° C., 6th Month)?
Answer: 80.3

Question: And the Purity ([2]; 25° C., Initial)?
Answer: 98.1

Question: Which results are given for `C[C@H](NC(=O)OC[n+]1cccc(C(=O)NCCO[N+](=O)[O-])c1)C1CCCCC1` [Compound 1 Sulphate Salt]?
Answer: Purity ([2]; 5° C., 1st Month): 90.7; Purity ([2]; 5° C., 2nd Month): 87.9; Purity ([2]; 5° C., 3rd Month): 91.1; Purity ([2]; 5° C., 6th Month): 90.9; Purity ([2]; 5° C., Initial): 94.7; Purity ([2]; 25° C., 1st Month): 90.0; Purity ([2]; 25° C., 2nd Month): 56.9; Purity ([2]; 25° C., 3rd Month): 33.7; Purity ([2]; 25° C., 6th Month): 23.5; Purity ([2]; 25° C., Initial): 94.7; Purity ([2]; 40° C., 1st Month): 75.6; Purity ([2]; 40° C., 2nd Month): 8.3; Purity ([2]; 40° C., 3rd Month): 0.9; Purity ([2]; 40° C., 6th Month): 1.5; Purity ([2]; 40° C., Initial): 94.7

Question: Which Purity ([2]; 5° C., 1st Month) does the source give for `C[C@H](NC(=O)OC[n+]1cccc(C(=O)NCCO[N+](=O)[O-])c1)C1CCCCC1` [Compound 1 Esylate Salt] here?
Answer: 92.7

Question: And the Purity ([2]; 5° C., 2nd Month)?
Answer: 92.3

Question: What about the Purity ([2]; 5° C., 3rd Month) of the same molecule?
Answer: 91.5

Question: What about the Purity ([2]; 5° C., 6th Month) of the same molecule?
Answer: 89.6

Question: What about the Purity ([2]; 5° C., Initial) of the same molecule?
Answer: 95.4

Question: What about the Purity ([2]; 25° C., 1st Month) of the same molecule?
Answer: 91.4

Question: And the Purity ([2]; 25° C., 2nd Month)?
Answer: 84.4

Question: And the Purity ([2]; 25° C., 3rd Month)?
Answer: 73.9

Question: And the Purity ([2]; 25° C., 6th Month)?
Answer: 58.7

Question: What about the Purity ([2]; 25° C., Initial) of the same molecule?
Answer: 95.4

Question: For `C[C@H](NC(=O)OC[n+]1cccc(C(=O)NCCO[N+](=O)[O-])c1)C1CCCCC1` [Compound 1 4-Bromobesylate Salt], which Purity ([2]; 5° C., 1st Month) is on record?
Answer: 91.0

Question: And the Purity ([2]; 5° C., 2nd Month)?
Answer: 93.1

Question: What about the Purity ([2]; 5° C., 3rd Month) of the same molecule?
Answer: 89.6

Question: What about the Purity ([2]; 5° C., 6th Month) of the same molecule?
Answer: 86.6

Question: And the Purity ([2]; 5° C., Initial)?
Answer: 98.4

Question: And the Purity ([2]; 25° C., 1st Month)?
Answer: 89.0

Question: And the Purity ([2]; 25° C., 2nd Month)?
Answer: 84.2

Question: What about the Purity ([2]; 25° C., 3rd Month) of the same molecule?
Answer: 76.8

Question: And the Purity ([2]; 25° C., 6th Month)?
Answer: 67.6

Question: What about the Purity ([2]; 25° C., Initial) of the same molecule?
Answer: 98.4

Question: For `C[C@H](NC(=O)OC[n+]1cccc(C(=O)NCCO[N+](=O)[O-])c1)C1CCCCC1` [Compound 1 Triflate Salt], which Purity ([2]; 5° C., 1st Month) is on record?
Answer: 95.0

Question: What about the Purity ([2]; 5° C., 2nd Month) of the same molecule?
Answer: 95.0

Question: And the Purity ([2]; 5° C., 3rd Month)?
Answer: 94.8

Question: And the Purity ([2]; 5° C., 6th Month)?
Answer: 96.1

Question: What about the Purity ([2]; 5° C., Initial) of the same molecule?
Answer: 96.6

Question: And the Purity ([2]; 25° C., 1st Month)?
Answer: 94.4

Question: What about the Purity ([2]; 25° C., 2nd Month) of the same molecule?
Answer: 91.1

Question: What about the Purity ([2]; 25° C., 3rd Month) of the same molecule?
Answer: 85.8

Question: And the Purity ([2]; 25° C., 6th Month)?
Answer: 78.5

Question: And the Purity ([2]; 25° C., Initial)?
Answer: 96.6
